Assay results from patent US20250074901A1, “NOVEL HETEROARYL COMPOUNDS” (ICAGEN, LLC, priority 2021, published 2025).

Molecular target: T1, Kv7.2 (Homo sapiens, UniProt O43526)
T1 construct: expressed in transfected cells
Assay: Activation of Kv7.2 (in vitro assay, concentration response curve)
Type: cell-based
Conditions: for Emax: Kv7.2 activation max %; for EC50: activation of Kv7.2
Procedure, shortened: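 EC50 is the half-maximal effective concentration, relative to the Emax observed for each compound in this in vitro assay. It was derived from concentration–response curves of the agonistic effect measured over a series of concentrations.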

SMILES	Emax [%]	EC50 [nM]
O=C(NCc1ccnc(OC(F)F)c1)NC1(C23CC(C2)C3)CC1 [Example 246, 1-[1-(1-bicyclo[1.1.1]pentanyl)cyclopropyl]-3-[[2-(difluoromethoxy)pyridin-4-yl]methyl]urea]	60	540
COc1cc(CNC(=O)N[C@H]2C[C@H](C(F)(F)F)C2)ccn1 [Example 128, 1-[(2-methoxypyridin-4-yl)methyl]-3-[(1r,3r)-3-(trifluoromethyl)cyclobutyl]urea]	75	5360
CC(F)(F)c1cc(CNC(=O)Nc2cccc(Cl)c2)ccn1 [Example 231, 1-(3-chlorophenyl)-3-[[2-(1,1-difluoroethyl)pyridin-4-yl]methyl]urea]	51	800
O=C1CC2CCC(C1)C2NC(=O)NCc1ccnc(OC(F)F)c1 (racemic) [Example 139, 1-[[2-(difluoromethoxy)pyridin-4-yl]methyl]-3-[rac-(1R,5S)-3-oxo-8-bicyclo[3.2.1]octanyl]urea]	61	5250
O=C(NCc1ccnc(OC(F)F)c1)Nc1ccc(F)c(F)c1F [Example 272, 1-[[2-(difluoromethoxy)pyridin-4-yl]methyl]-3-(2,3,4-trifluorophenyl)urea]	44	910
O=C(NCc1ccnc(OC(F)F)c1)N[C@H]1C[C@@H](OC(F)F)C1 [Example 265, 1-[(1s,3s)-3-(difluoromethoxy)cyclobutyl]-3-[[2-(difluoromethoxy)pyridin-4-yl]methyl]urea]	47	470
O=C(NCc1ccnc(OC(F)F)c1)NCC1(F)CCC1 [Example 40, 1-[[2-(difluoromethoxy)pyridin-4-yl]methyl]-3-[(1-fluorocyclobutyl)methyl]urea]	58	640
O=C(NCc1ccnc(OCC(F)(F)F)c1)NCC(O)C12CC(C1)C2 (centres unmarked) [Example 292, 1-[2-(1-bicyclo[1.1.1]pentanyl)-2-hydroxyethyl]-3-[[2-(2,2,2-trifluoroethoxy)pyridin-4-yl]methyl]urea]	62	620

Stronger by EC50, values ahead:

Emax [%]	EC50 [nM]	SMILES
76	450	CC1CC(NC(=O)NCc2ccnc(OC(F)F)c2)C1 (centres unmarked) [Example 65, 1-[[2-(difluoromethoxy)pyridin-4-yl]methyl]-3-(3-methylcyclobutyl)urea]
50	280	O=C(NCc1ccnc(OC(F)F)c1)N[C@H]1C[C@H](C(F)F)C1 [Example 136, 1-[[2-(difluoromethoxy)pyridin-4-yl]methyl]-3-[(1r,3r)-3-(difluoromethyl)cyclobutyl]urea]
73	390	O=C(NCc1ccnc(-n2cccn2)c1)N[C@@H]1C[C@H]2CC[C@@H]1C2 [Example 16, 1-[(1R,2R,4S)-2-bicyclo[2.2.1]heptanyl]-3-[(2-pyrazol-1-ylpyridin-4-yl)methyl]urea]
58	320	O=C(NCc1ccnc(OC(F)F)c1)N[C@H]1CCC(F)(F)C1 [Example 116, 1-[(1S)-3,3-difluorocyclopentyl]-3-[[2-(difluoromethoxy)pyridin-4-yl]methyl]urea]
52	130	O=C(NCc1ccnc(OC(F)F)c1)N[C@@H]1CCOc2ccccc21 [Example 23, 1-[[2-(difluoromethoxy)pyridin-4-yl]methyl]-3-[(4R)-3,4-dihydro-2H-chromen-4-yl]urea]
94	250	O=C(NCc1ccnc(OC(F)F)c1)NC1C[C@H]2C[C@@H]1CC2(F)F (mixture of isomers) [Example 165, 1-[[2-(difluoromethoxy)pyridin-4-yl]methyl]-3-[rac-(1R,4R)-5,5-difluoro-2-bicyclo[2.2.1]heptanyl]urea]
73	310	O=C(Nc1cccc(Cl)c1)NC(CO)c1ccnc(OC(F)F)c1 (single isomer, unassigned) [Example 263]
50	250	O=C(NCc1ccnc(OC(F)F)c1)Nc1cc(F)ccc1F [Example 244, 1-[[2-(difluoromethoxy)pyridin-4-yl]methyl]-3-(2,5-difluorophenyl)urea]
